Data on eight compounds can be found in patent US8569292B2, “Cyclic inhibitors of 11β-hydroxysteroid dehydrogenase 1” (Vitae Pharmaceuticals, Inc., priority 2008, dated 2013).

Test [1] addresses T1, 11β-HSD1 (Homo sapiens, UniProt P28845). Kind of test: biochemical. Particulars: for IC50: Biological Test Example 1 IC50 (nM); for pIC50: IC50 Range, Biological Test Example 1; for inhibition at 0.1 µM: read-out: Average % inhibition at 100 nM.
Test [2] concerns the target T1, 11β-HSD1. As to the kind of experiment: Biological Test Example 4: microsomal 11β-HSD1 in the presence of 50% human plasma. Particulars: for Shift: IC50 in Test Example 4 divided by IC50 in Test Example 1.

One may read the IC50 as the point on the concentration scale where inhibition reaches its midpoint. Read a low IC50 as inhibition by little substance. As usually defined, the pIC50 is the negative decadic logarithm of the IC50, by convention in mol/L. One may read the inhibition as the percentage by which the read-out fell short of the control.

Structures are written as SMILES. pIC50: −log10 of the molar value.

T1 sequence (P28845 whole entry): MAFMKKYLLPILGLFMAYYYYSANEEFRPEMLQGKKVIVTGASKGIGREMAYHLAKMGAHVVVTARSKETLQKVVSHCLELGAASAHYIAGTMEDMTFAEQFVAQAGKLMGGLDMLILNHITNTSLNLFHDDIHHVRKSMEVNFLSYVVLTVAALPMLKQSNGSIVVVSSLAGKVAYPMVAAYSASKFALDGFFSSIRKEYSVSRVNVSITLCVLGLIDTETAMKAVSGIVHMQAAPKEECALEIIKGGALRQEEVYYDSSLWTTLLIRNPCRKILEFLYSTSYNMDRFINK

With `Cc1cn(-c2ncc(-c3ccc([C@H](C)N4CC[C@](CC(C)(C)O)(c5ccccc5)OC4=O)cc3)cn2)c(C)n1` [EXAMPLE 26, (S)-3-((S)-1-(4-(2-(2,4-dimethyl-1H-imidazol-1-yl)pyrimidin-5-yl)phenyl)ethyl)-6-(2-hydroxy-2-methylpropyl)-6-phenyl-1,3-oxazinan-2-one], in test [1], the IC50 is 1.7 nM, the pIC50 is more than 7.00 and the inhibition at 0.1 µM amounted to 95.2%. Further, in test [2], the pIC50 is 8.17 and the Shift is given as 4.1.
For `Cc1nccn1-c1ncc(-c2ccc([C@H](C)N3CC[C@](CC(C)(C)O)(c4ccccc4)OC3=O)cc2)cn1` [EXAMPLE 27, (S)-6-(2-hydroxy-2-methylpropyl)-3-((S)-1-(4-(2-(2-methyl-1H-imidazol-1-yl)pyrimidin-5-yl)phenyl)ethyl)-6-phenyl-1,3-oxazinan-2-one], in test [1], half-maximal inhibition (IC50) required 1.2 nM, the pIC50 was more than 7.00 and the inhibition at 0.1 µM amounted to 96.8%. In test [2], the pIC50 was 8.33 and the Shift came to 3.8.
For the compound `C[C@@H](c1ccc(-c2cccc(OC3CCCC3)n2)cc1)N1CC[C@](CC(C)(C)O)(c2ccccc2)OC1=O` [EXAMPLE 28, (S)-3-((S)-1-(4-(6-(cyclopentyloxy)pyridin-2-yl)phenyl)ethyl)-6-(2-hydroxy-2-methylpropyl)-6-phenyl-1,3-oxazinan-2-one], in test [1], half-maximal inhibition (IC50) required 1.4 nM, the pIC50 is more than 7.00 and the inhibition at 0.1 µM is 89.7%. In test [2], the pIC50 is 6.73 and the Shift amounted to 129.7.
On to `C[C@@H](c1ccc(-c2cccc(N(C)C)n2)cc1)N1CC[C@](CC(C)(C)O)(c2ccccc2)OC1=O` [EXAMPLE 30, (S)-3-((S)-1-(4-(6-(dimethylamino)pyridin-2-yl)phenyl)ethyl)-6-(2-hydroxy-2-methylpropyl)-6-phenyl-1,3-oxazinan-2-one], for which, in test [1], inhibition was half-maximal at 0.9 nM (IC50), the pIC50 was more than 7.00 and the inhibition at 0.1 µM was found to be 98.1%. In test [2], the pIC50 is 7.66 and the Shift was 24.0.
For the compound `C[C@@H](c1ccc(-c2cnc(C(C)(C)O)nc2)cc1)N1CC[C@](CC(C)(C)O)(c2ccccc2)OC1=O` [EXAMPLE 31, (S)-6-(2-hydroxy-2-methylpropyl)-3-((S)-1-(4-(2-(2-hydroxypropan-2-yl)pyrimidin-5-yl)phenyl)ethyl)-6-phenyl-1,3-oxazinan-2-one], in test [1], half-maximal inhibition (IC50) required 4.8 nM, the pIC50 is more than 7.00 and the inhibition at 0.1 µM was found to be 90.7%. Besides, in test [2], the pIC50 is 8.03 and the Shift came out at 1.9.
As for `C[C@@H](c1ccc(-c2cccnc2)cc1)N1CC[C@](CCC(N)=O)(c2ccc(F)cc2)OC1=O` [EXAMPLE 41, 3-((R)-6-(4-fluorophenyl)-2-oxo-3-((S)-1-(4-(pyridin-3-yl)phenyl)ethyl)-1,3-oxazinan-6-yl)propanamide], in test [1], the midpoint of inhibition, the IC50, lay at 1.9 nM; the pIC50 was more than 7.00; the inhibition at 0.1 µM is 96.8%. Moreover, the pIC50 in test [2] is 7.96.
For the compound `C=CC[C@]1(c2ccc(F)cc2)CCN([C@@H](C)c2ccc(-c3sc(C)nc3C)cc2)C(=O)O1` [EXAMPLE 42, (R)-6-allyl-3-((S)-1-(4-(2,4-dimethylthiazol-5-yl)phenyl)ethyl)-6-(4-fluorophenyl)-1,3-oxazinan-2-one], in test [1], the half-inhibitory concentration (IC50) turned out to be 1 nM, the pIC50 is more than 7.00 and the inhibition at 0.1 µM was 90.9%. Further, in test [2], the negative logarithm of the IC50 (pIC50) was 7.46 and the Shift stood at 33.4.
For `C=CC[C@]1(c2ccc(F)cc2)CCN([C@@H](C)c2ccc(-n3ccc(C(F)(F)F)n3)cc2)C(=O)O1` [EXAMPLE 43, (R)-6-allyl-6-(4-fluorophenyl)-3-((S)-1-(4-(3-(trifluoromethyl)-1H-pyrazol-1-yl)phenyl)ethyl)-1,3-oxazinan-2-one] the same measures were 8.6 nM, more than 7.00, 86.2%, 6.50 and 36.5.
